Common to all, as to type: in vivo, mouse
One experiment deals with SW1 melanoma tumors. Description: SW1 melanoma tumors in C3H/HeN mice fed control or L-fucose water. To be noted: for reduced tumor growth: 100 mM L-fucose in drinking water from ~150 mm^3. The method, then:
To determine which immune cell populations were affected by L-fucose, another mouse melanoma model treated with control or L-fucose-supplemented water was used. First, 1.25×10^6 SW1 mouse melanoma cells were injected into the back right flanks of the mice and allowed the tumors to grow to 150 mm^3. At 150 mm^3 (14 days), 100 mM L-fucose was administered via the drinking water to half of the mice. Tumor growth was monitored (FIGS. 3A and 3B). Total and specific subpopulations of tumor-infiltrating lymphocytes were assessed by cell flow cytometric analysis (FIGS. 3C and 3D). Assessed populations included F4/80 (macrophage)-, Gr-1 (MDSCs)-, Cd11c (Dendritic cells)-, and DX5 (NK cells)-positive cells. For T-cells, we probed for CD3 (general T-cell marker) and further for CD4 and CD8 (for those T cell subpopulations). Of the CD4-positive cells, CD25 positive cells was used to elucidate the T regulatory cells. […] Both CD4 and CD8 positive T cells (CD3+ cells) increased in response to fucose. However, myeloid derived suppressor cells (MDSCs) decreased in response to dietary fucose supplementation.
Tumors of SW1 or SMI melanoma cells from C3H/HeJ or C57BL/6 mice, respectively) were digested using 1× tumor digest buffer (0.5 mg/ml. Collagenase I, 0.5 mg/ml. Collagenase IV, 0.25 mg/ml. Hyalyronidase V. 0.1 mg/ml. DNAse I in HBSS (Millipore Sigma (St. Louis, MO)). Tumors were homogenized using the Miltenyi MACs dissociator. Red blood cells were lysed using ACK lysis buffer (Life Technologies, (Grand Island, NY)). Tumor homogenate cells were counted using a standard hemocytometer. (7) Flow Cytometry (a) TIL Profiling:
Single-cell suspensions from tumor and spleen tissue were stained with Live/Dead Zombie NIR (Biolegend, (San Diego, CA)) at 1:1,000 in PBS for 20 min. Cell suspensions were spun down and stained with the following antibodies: APC anti-mouse CD3 (0.5 μg/mL, BD Biosciences (San Jose, CA)), Pacific Blue anti-mouse CD4 ([…], BD Biosciences (San Jose, CA)), BV785 anti-mouse CD8 (0.5 μg/mL, BD Biosciences (San Jose, CA)), PerCP anti-mouse CD25 ([…], BD Biosciences (San Jose, CA)), FITC anti-mouse F4/80 (0.5 μg/mL, BD Biosciences (San Jose, CA)), PeCy7 anti-mouse CD11c (0.5 μg/mL, BD Biosciences (San Jose, CA)), PE anti-mouse NK1.1 (0.5 μg/mL, BD Biosciences (San Jose, CA)), PE anti-mouse DX5 (0.5 μg/mL, BD Biosciences (San Jose, CA)), PerCP-Cy5.5 anti-mouse CD11b (0.5 μg/mL, BD Biosciences (San Jose, CA)). After staining, the cells were washed and fixed (2% formaldehyde), followed by another wash and flow cytometric analysis. The compensation controls were prepared using 0.5 μg/ml. of each antibody with beads UltraComp eBeads™, (ThermoFisher Scientific (Waltham, MA)). All samples were subject to flow cytometric analysis using a LSR Flow Cytometer (BD Biosciences (San Jose, CA)). Flow cytometric data was further analyzed using FlowJo™ analysis software (BD Biosciences (San Jose, CA)). TIL profiles were determined as a measure of TIL subpopulations per gram of tumor tissues or % of total splenocytes.
FFPE mouse tumor sections were immunostained with FITC-conjugated AAL lectin (0.4 μg/mL, Vector Laboratories (Burlingame, CA)), rabbit anti-Mart-1 (0.2 μg/mL, Millipore Sigma (St. Louis, MO), and rabbit anti-S100 (0.2 μg/mL, Agilent Technologies (Santa Clara, CA)), followed by AlexaFluor 594 donkey anti-rabbit secondary antibody (0.05 μg/mL, ThermoFisher Scientific (Waltham, MA)). The slides were mounted with VECTASHIELD®+DAPI (Vector Laboratories (Burlingame, CA)). Microscopy images were acquired using a Keyence BZ-X710 microscope (Osaka, Japan), and images were measured for AAL-positive signal within MARTI-/S 100-positive regions (designated as melanoma regions of interest) using FIJI software (NIH). Statistical analysis was performed using GraphPad Prism™ (San Diego, CA).
Four-to-six-week-old female C3HeN and male C57BL6 mice were purchased from Charles Rivers Laboratories for the indicated experiments. […]

A further experiment relates to SM1 tumors. Put plainly: Anti-PD1 ± L-fucose, SM1 (BRAF-mutant) model in C57BL/6 mice. From the text:
Fucosylation of HLA-DRB1 occurs on amino acid N48 (mutation to G abolishes interaction with fucose-binding AAL, lectin) (FIG. 9A). […] To further investigate the efficacy of the combination therapy of L-fucose and anti-PD1 and to see if the combination of L-fucose and anti-PD1 improved the efficacy of either agent alone, two mouse melanoma mouse models were used. The first was the NRAS-mutant melanoma mouse model. Here, C3H mice were pretreated with anti-PD1 and/or L-fucose or a L-fucose pre-dose followed by anti-PD1 antibody (FIG. 11). […] Using a BRAF-mutant melanoma model, the efficacy of the combination therapy was more pronounced. Here C57BL6 mice were challenged with SMI cells (FIG. 11). 7 days post challenge, mice received either a control, anti-PD1, L-fucose, or L-fucose and anti-PD1.
SW1 or SM1 mouse melanoma cells were injected into syngeneic C3H/HeN female or C57BL/6 male mice, respectively. After approximately 7 days, when the mice tumors reached ˜150 mm^3, the mice were either supplemented with or without 100 mM L-fucose (Biosynth (Oak Terrace, IL)) via drinking water, which was provided ad libitum. Simultaneously, the mice were injected either with PBS (control) or anti-PD1 (20 mg/kg, clone RMP1-14, Bioxcell (West Lebanon, NH)) every 3-4 days until endpoint. When the tumors reached ˜2 cm^3, the animals were sacrificed.

For another experiment, the system named is SW1 tumors. Description: SW1/C3H/HeJ model, L-fucose with anti-CTLA4 or anti-PD1 (FIG. 10). Particulars: oral L-fucose 100 mM from day 14. The method, then: FIGS. 10A and 10B show Oral L-fucose is more tumor suppressive than α-CTLA4 or α-PD1 alone, beginnings of improved effects. SW1 tumor growth curves in mice fed ±100 mM L-fucose treated with either control (PBS) or […] (10A) or α-PD1 (10B). Combinations are color-coded as indicated. N=8 mice per condition. L-fucose was administered in the water starting on day 14 (refreshed twice weekly); α-CTLA4 or α-PD1 was administered (20 mg/kg each) twice weekly starting day 14.

Setting [1] is: empty vector-expressing SW1 tumors.
[2] abbreviates: vs control diet, listed as L-fuc.

“Also recorded” adds a separate entry of the source.

`C[C@H](O)[C@@H](O)[C@@H](O)[C@H](O)C=O` [L-fucose]: the “increase in tumor fucosylation” value in the experiment on SW1 melanoma tumors (100 mM L-fucose in drinking water) was roughly 2.25 fold. The reduced tumor growth with SW1 melanoma tumors was greater than 65%. Besides, the reduced tumor growth with SW1 melanoma tumors (listed as L-fuc) is recorded as roughly 50%. For the same molecule, the “increase in total TIL counts / infiltrating immune cells per gram of tumor” value in the experiment with SW1 melanoma tumors (100 mM L-fucose in drinking water, flow cytometry) is 10-50 fold. Also, in the experiment with SW1 melanoma tumors (setting [1]), the “reduced growth of EV tumors” value is roughly 50% and the “total TILs in EV tumors” value is recorded as “doubling”. Further, the splenic lymphocyte profiles result with SW1 melanoma tumors (flow cytometry) is on record as “without significant changes”. In addition, the “additive effect of L-fuc in mFuk tumors” value with SW1 melanoma tumors (mFuk-expressing SW1 tumors) was “No additive effects”. Further, in the experiment with SW1 melanoma tumors (vs control diet), the “absolute counts of each TIL subpopulation” value is given as “increased”; the “intratumoral CD4+ and CD8+ T cells” value is “increased; also recorded: doubled”; the “myeloid derived suppressor cells (MDSCs) in tumor” value is given as “decreased”; the “overall immune infiltration of tumors” value is “increased”. Moreover, in the experiment on SW1 melanoma tumors (setting [2]), the “intratumoral CD4+ and CD8+ T cells” value is “doubling”; the “myeloid derived suppressor cells (MDSCs) in tumor” value was “either decreased or low”. The tumor growth suppressed in the experiment with SM1 tumors (for 21 days) is recorded as greater than 50%. Also, in the experiment on SM1 tumors (single agents), the “tumor suppression compared with anti-PD1” value was “less effective than anti-PD1”. Besides, the “suppression of melanoma growth compared with checkpoint antibodies” value in the experiment with SW1 tumors is on record as “more significantly than anti-CTLA4 or anti-PD1 alone”.

Values taken from patent publication US12642809B2, “Fucosylation and immune modulation in cancer” (H. LEE MOFFITT CANCER CENTER AND RESEARCH INSTITUTE, INC., priority 2019, dated 2026).
